The test system of assay [1] is Human mammary cancer MCF-7 cell. Put plainly: Human mammary cancer MCF-7 cell growth inhibition test (neutral red). It counts as cell-based. As to conditions: MCF7, MCF-7 cells, 72 hours, medium with 10^-8M estradiol, neutral red absorbance at 550 nm. The procedure:
Human mammary cancer MCF-7 cell growth inhibition test
Each 0.1 ml of MCF-7 cells which had been prepared in a concentration of 5 x 10^4/ml using a medium prepared by adding 10% bovine fetal serum, 10^-8M estradiol (manufactured by Sigma), 100 units/ml penicillin and 100 µg/ml streptomycin to RPMI1640 medium (referred to as Medium B hereinafter) was distributed in each well of 96 well-microtiter plate. […] The supernatant was removed, each 0.1 ml of Medium B containing 0.02% neutral red was added to the residue, the mixture was allowed to stand at 37 °C for 1 hour in a CO2 gas incubator and the cells were stained by neutral red dye. The supernatant was removed and the residue was washed once with a physiological saline. Then, the dye was extracted with 0.001 N hydrochloric acid/30% ethanol and the absorbance at 550 nm was determined with a microplatereader.

Assay [2] has as its system estrogen-dependent human mammary cancer MCF-7. Description: Antitumor effects against estrogen-dependent human mammary cancer MCF-7 transplanted in nude mice. The class given is in vivo, female BALB/c-nu/nu mouse. To be noted: Mus musculus, MCF7, po; dose 25 mg/kg orally, 5 days per week for two weeks; ratio of V/V0 of treated group to control group; judgement date day 14 to 25, differs per compound; read-out: T/C. From the text:
Antitumor effects against estrogen-dependent human mammary cancer MCF-7
The tumor fragment (2 mm x 2 mm x 2mm) of human hormone dependent mammary cancer MCF-7 was transplanted subcutaneously in the flank of female BALB/c-nu/nu mouse (Nihon Crea), 7 to 9 weeks age. […] Mice having the tumor volume 25 to 200 mm^3 were selected 3 to 4 weeks after transplantation, and the test compounds were orally administered repeatedly to the groups (5 animals per group) for 5 days per a week, for total two weeks. In addition, estradiol propionate was administered again on the date of initial administration of the test compounds. Length and width of the tumor were determined every day, and the tumor volumes were calculated by means of ellipsoid approximation according to the following equation: […] [formula]
The tumor volume at initial administration (V0) and on the day of judgement (V) was calculated, and the tumor growth rate (V/V0) was calculated. T/C value was obtained as the ratio of V/V0 value of treated group relative to that of control group.

The test system of assay [3] is Mature female BALB/c mice. Put plainly: Effect on uterus weight of mature mouse (anti-estrogenic activity). It counts as in vivo. To be noted: dose 25 mg/kg, orally, repeatedly for 4 days; uteri isolated after 5 days; not treated group 106 mg. The method, then:
The effect against the decrease in uterus weight of mature mouse
Mature female BALB/c mice, 9 weeks age, were divided into two groups (6 animals per group). The test compounds were repeatedly administered orally to one group for 4 days. After 5 days, the uteri were isolated and the weight thereof was measured.

Consider twelve molecules from patent publication EP0755928B1, “5-AMINOFLAVONE DERIVATIVES” (KYOWA HAKKO KOGYO CO., Ltd., priority 1995, dated 1996).

As a reminder, the IC50 is the point on the concentration scale where inhibition reaches its midpoint. Low readings indicate greater potency in that assay, high ones weaker potency in that assay.

The molecule `CN1CCN(C(=O)OCc2c(F)c(N)c3c(=O)cc(-c4ccc(N)c(F)c4)oc3c2F)CC1` [Compound 2, 5-Amino-2-(4-amino-3-fluorophenyl)-6,8-difluoro-7-(4-methylpiperazinyl)carbonyloxymethyl-4H-1-benzopyran-4-one] registered an IC50 in assay [1] of 230 nM.
Regarding `Nc1ccc(-c2cc(=O)c3c(N)c(F)c(COC(=O)CN4CCC(O)CC4)c(F)c3o2)cc1F` [Compound 12, 5-Amino-2-(4-amino-3-fluorophenyl) -6,8-difluoro-7-(4-hydroxypiperidino)acetoxymethyl-4H-1-benzopyran-4-one], the response vs control in vivo at 25 mg/kg in assay [2] worked out at 3.5%. This molecule showed a concentration for half-maximal inhibition (IC50) in assay [1] of 18 nM.
For `COC(=O)CNCC(=O)OCc1c(F)c(N)c2c(=O)cc(-c3ccc(N)c(F)c3)oc2c1F` [Compound 14, 5-Amino-2-(4-amino-3-fluorophenyl)-6,8-difluoro-7-methoxycarbonylmethylaminoacetoxymethyl-4H-1-benzopyran-4-one] the same measures were 1.3% and 13 nM.
For `Nc1ccc(-c2cc(=O)c3c(N)c(F)c(COC(=O)CN4CCCCC4)c(F)c3o2)cc1F` [Compound 9, 5-Amino-2-(4-amino-3-fluorophenyl)-6,8-difluoro-7-piperidinoacetoxymethyl-4H-1-benzopyran-4-one] the same measures were 4.2% and 33 nM.
Regarding `CN(C)CC(=O)OCc1c(F)c(N)c2c(=O)cc(-c3ccc(N)c(F)c3)oc2c1F` [Compound 6, 5-Amino-2-(4-amino-3-fluorophenyl) -7-dimethylaminoacetoxymethyl-6,8-difluoro-4H-1-benzopyran-4-one], the response vs control in vivo at 25 mg/kg in assay [2] amounted to 1.2%. In addition, in assay [1], the IC50 is 26 nM. The same molecule came in with a weight of uterus in assay [3] of 67 mg.
In assay [1], `C=CCOC(=O)OCc1c(F)c(N)c2c(=O)cc(-c3ccc(N)c(F)c3)oc2c1F` [Compound 15, 7-Allyloxycarbonyloxymethyl-5-amino-2-(4-amino-3-fluorophenyl)-6,8-difluoro-4H-1-benzopyran-4-one] yielded a 50% inhibitory concentration (IC50) of 81 nM.
As to `CN(C)CCN(C)CC(=O)OCc1c(F)c(N)c2c(=O)cc(-c3ccc(N)c(F)c3)oc2c1F` [Compound 13, 5-Amino-2-(4-amino-3-fluorophenyl)-7-[N-(2-dimethylaminoethyl)-N-methylamino)acetoxymethyl-6,8-difluoro-4H-1-benzopyran-4-one], the response vs control in vivo at 25 mg/kg in assay [2] is 2.2%.
`Nc1ccc(-c2cc(=O)c3c(N)c(F)c(COC(=O)CN4CCOCC4)c(F)c3o2)cc1F` [Compound 11, 5-Amino-2-(4-amino-3-fluorophenyl)-6,8-difluoro-7-morpholinoacetoxymethyl-4H-1-benzopyran-4-one]: in assay [2], the response vs control in vivo at 25 mg/kg turned out to be 4.4%. In assay [1], this molecule gave an IC50 of 17 nM.
`CCN(CC)C(=O)OCc1c(F)c(N)c2c(=O)cc(-c3ccc(N)c(F)c3)oc2c1F` [Compound 1, 5-Amino-2-(4-amino-3-fluorophenyl)-7-diethylcarbamoyloxymethyl-6,8-difluoro-4H-1-benzopyran-4-one] gave an IC50 in assay [1] of 350 nM.
`CN(C)CCC(=O)OCc1c(F)c(N)c2c(=O)cc(-c3ccc(N)c(F)c3)oc2c1F` [Compound 7, 5-Amino-2-(4-amino-3-fluorophenyl)-7-(3-dimethylaminopropionyl) oxymethyl-6,8-difluoro-4H-1-benzopyran-4-one]: the response vs control in vivo at 25 mg/kg in assay [2] is 4.1%. The IC50 in assay [1] turned out to be 19 nM.
For the molecule `CN(C)CCCC(=O)OCc1c(F)c(N)c2c(=O)cc(-c3ccc(N)c(F)c3)oc2c1F` [Compound 8, 5-A-mino-2-(4-amino-3-fluorophenyl)-7-(4-dimethylaminobutyryl)oxymethyl-6,8-difluoro-4H-1-benzopyran-4-one], the response vs control in vivo at 25 mg/kg in assay [2] was 15%. In addition, the half-inhibitory concentration (IC50) in assay [1] was 29 nM.
For `CN1CCN(CC(=O)OCc2c(F)c(N)c3c(=O)cc(-c4ccc(N)c(F)c4)oc3c2F)CC1` [Compound 10, 5-Amino-2-(4-amino-3-fluorophenyl)-6,8-difluoro-7-(4-methylpiperazinyl)acetoxymethyl-4H-1-benzopyran-4-one], in that order: 7% and 87 nM.
